In patent US20140057977A1, “Induction of Arteriogenesis” (G. Pohl-Boskamp GmbH & Co. KG, priority 2012, published 2014):
“And” between values parts separate entries of the source, which are not always exact repeats. Equal entries are not always repeated. “Also recorded” adds a separate entry of the source.

What was measured:
Format in all cases: in vivo
rat heart [1] = assay: Ventricular arrhythmias during FPO, Lown classification and VPB score
rat heart [2] = assay: Infarct size by TTC staining after 90 minutes of LAD occlusion; details: for Infarct size: 90 min LAD occlusion, percentage of the area of the left ventricle
rat heart [3] = assay: ST segment elevation (ECG) during final permanent LAD occlusion (FPO), rat repetitive ischemia protocol (RIP) arteriogenesis model

O=[N+]([O-])OCC(CO[N+](=O)[O-])O[N+](=O)[O-] [NTG, nitroglycerin]
VPB-Score (rat heart [1]; rat, in vivo): 5.77 and 3.60 | arrhythmias / VPB-Score compared to controls (in words) (rat heart [1]; rat, in vivo): more often scaled into grade 0; also recorded: reduced arrhythmias; also recorded: decreased serious arrhythmias | rats with class 0 arrhythmias (rat heart [1]; rat, in vivo): 57.1% | rats with class IIIa arrhythmias (rat heart [1]; rat, in vivo): 14.3% | rats with class IVb arrhythmias (rat heart [1]; rat, in vivo): 85.7% and 42.9% | decrease of infarct volume compared to the control group (rat heart [2]; rat, in vivo): more than 50% | infarct size compared to controls (in words) (rat heart [2]; rat, in vivo): significantly smaller infarct area; also recorded: decreases the size of an experimentally induced myocardial infarct | ST segment elevation compared to controls (in words) (rat heart [3]; rat, in vivo): lower ST segment elevation course; also recorded: significantly decreased; also recorded: significantly attenuated ST elevation

O=[N+]([O-])O[C@H]1CO[C@H]2[C@@H]1OC[C@H]2O[N+](=O)[O-] [ISDN, isosorbide dinitrate]
arrhythmias / VPB-Score compared to controls (in words) (rat heart [1]; rat, in vivo): less arrhythmias | infarct size compared to controls (in words) (rat heart [2]; rat, in vivo): smaller compared to controls (treated with PBS or ISDN-Placebo), but there is no significance; also recorded: smaller; also recorded: reduced infarct volumes | ST segment elevation compared to controls (in words) (rat heart [3]; rat, in vivo): lower ST segment elevation course; also recorded: decreased compared to the PBS group but there is no significance; also recorded: non-significantly decreased; also recorded: decreases in ST elevation

CC(=O)Oc1ccccc1C(=O)O [ASA+PBS, acetyl salicylic acid]
arrhythmias / VPB-Score compared to controls (in words) (rat heart [1]; 5 DAYS RIP, during FPO): higher compared to the controls | Infarct size (rat heart [2]; 5 DAYS RIP): 12.51±3.05% | infarct size compared to controls (in words) (rat heart [2]; 5 DAYS RIP, listed as ASA): increase of infarct volumes | infarct size compared to controls (in words) (rat heart [2]; 5 DAYS RIP, listed as ASS+PBS): minimally increased | ST segment elevation compared to controls (in words) (rat heart [3]; 5 DAYS RIP, after FPO): higher compared to the PBS control group, but there is no significance

CC(=O)Oc1ccccc1C(=O)O [ASA+NTG-PLACEBO, acetyl salicylic acid]
rats with class IIIa arrhythmias (rat heart [1]; 5 DAYS RIP, during FPO): 16.7% | rats with class IVb arrhythmias (rat heart [1]; 5 DAYS RIP, during FPO): 83.3% | VPB-Score (rat heart [1]; RIP (Modules 2-4)): 5.50 | Infarct size (rat heart [2]; 5 DAYS RIP): 13.92±1.71% | Infarct size (rat heart [2]; 5 DAYS RIP, listed as NTG-PLACEBO+ASS): 13.92±1.71% | ST segment elevation (rat heart [3]; 5 DAYS RIP, after FPO): 0.144±0.091 mV
